Measurements: US20200239587A1, “SENSITIZATION OF TUMORS TO THERAPIES THROUGH ENDOGLIN ANTAGONISM” (Cedars-Sinai Medical Center, priority 2016, published 2020)
Entries after “also recorded” stand apart in the source; their conditions may differ.

Key:
[1] = tested on: tissue recombination orthotopic xenografts of primary human CAF and Rv1; test: Tissue recombination orthotopic xenografts of primary human CAF and Rv1; settings: castrated mice given enzalutamide vs control intact mice
Source text: FIG. 13A) Mice were orthotopically grafted with tissue recombinants of CW22Rv1 and CAF. […] FIG. 13B) H&E staining was followed by immune-localization for phosphorylated-histoneH3 (PH-H3), TUNEL, and chromogranin A (ChromA). Scale bar represents 32 μm. The mitotic (PH-H3) and cell death (TUNEL) indexes were plotted. n>5, error bars are mean+/−SD and *p<0.05, **p<0.01, ***p<0.001, compared to control unless otherwise indicated.
Male beige/SCID mice (Envigo), 6-8 or 10-12 weeks old, were used for subrenal capsule or prostatic orthotopic grafting, respectively, as previously described (Banerjee et al., 2014, Oncogene 33, 4924-4931; Hayward et al., 2001, Cancer Res 61, 8135-8142). In accordance with institutional animal care and use committee approval, 2×10^5 CW22Rv1 cells and 6×10^5 stromal cells were suspended in 20 μL type I collagen to be grafted into the subrenal capsule of mice castrated after seven days and sacrificed 21 days after castration. […] Tumor volume was calculated using the modified ellipsoid formula volume3=π/6×(width)2×length.
Paraffin embedded tissues were sectioned (5 μm thick) were subjected to hematoxylin and eosin (H&E) staining and immunohistochemistry as previously reported (Placencio et al., 2008, Cancer research 68, 4709-4718). […] Anti-phosphorylated histone H3 (06-570, Millipore), anti-CD105 (NCL-CD105, Leica Microsystems), anti-Ki67 (ab16667, Abcam), and anti-chromogranin A (sc-13090, Santa Cruz Biotechnology), anti-SFRP1 (601-401-475S, Rockland Immunochemicals), and anti-survivin (2808, Cell Signaling) antibodies were incubated at 4° C. overnight. Secondary antibody development was performed with Dako Cytomation mouse or rabbit kits and visualized using 3,3′-diaminobenzidine tetrahydrochloride substrate. TUNEL staining was performed per manufacturer's protocol (S7100, Millipore). Slides were scanned with a Leica Biosystems Aperio AT. Up to five fields per tissue were quantitated with Fiji (ImageJ) using a custom written macro. Mitotic and death index were quantitated by taking the total number of positively-stained nuclei divided by the total number of nuclei.

PC3 cells = test: MTT proliferation assay; format: cell-based, human; settings: enzalutamide, absence of TRC105; no androgen receptor expression
Description: (§1) CW22Rv1, C42B, and PC3 cells from ATCC were expanded as directed. Prostatectomy specimens from Cedars-Sinai Medical Center or the Greater Los Angeles Veterans Affairs were cultured to generate NAF and CAF cells using the same method, as C57BL/6 mouse wild-type prostatic fibroblasts were grown as previously reported (Franco et al., 2011, Cancer research 71, 1272-1281; Kiskowski et al., 2011, Cancer research 68, 4709-4718). TRC105 and M1043 were provided by TRACON Pharmaceuticals, Inc. (San Diego, Calif.). Enzalutamide (Xtandi) was purchased from Medivation (San Francisco, Calif.).
(§2) 3000 cells per 96-well were treated for 72 hours using 5 wells per treatment. MTT reagent (M6494, Life Technologies) was prepared as directed, incubated for one hour at 37° C., and analyzed using manufacturer's recommendations.

Rv1 = test: MTT proliferation assay; format: cell-based, human; settings: enzalutamide alone, absence of fibroblastic cells; p<0.0001
Description: as §1, §2

C42B = test: MTT proliferation assay; format: cell-based, human; settings: enzalutamide alone, absence of fibroblastic cells; p<0.0001
Description: as §1, §2

[2] = tested on: PCa patient-derived xenograft (PDX); test: PCa patient-derived xenograft (PDX), immune-localization of CD105 and SFRP1; format: in vivo, mice
Source text: See also FIG. 15. […] Scale bar represents 100 μm. […] See also FIG. 16.

[3] = tested on: CD105 cell surface expression in human CW22Rv1 epithelia and mouse prostatic fibroblasts; test: 3D co-culture, CD105 cell surface expression by FACS; format: cell-based; settings: enzalutamide vs vehicle; epithelial and fibroblastic populations
Description: After 72 hours, the cells were dissociated and assessed by FACS for CD105 expression as shown.
A modified version of the 3D organotypic co-culture system was performed in a collagen matrix similar to that previously reported (Stark et al., 1999, J Invest Dermatol 112, 681-691). Collagen matrix gels were prepared by mixing five volumes of rat tail collagen I with two volumes of matrigel (NCI), one volume of 10× DMEM medium (GE Healthcare Life Sciences), and one volume of FBS (Atlanta Biologicals), Rv1 and primary mouse prostatic fibroblasts were combined in a 1:3 ratio. Nylon squares were coated with collagen and placed on metal grids in a 6-well plate. Gel plugs (150 μl) were transferred onto the nylon squares and media was added to the level of the nylon mesh. After 72 hours, the cells were dissociated from the matrix with collagenase and dispersed for FACS analysis.
FACS experiments were performed with eBiosciences antibodies: anti-human Stro-1-FITC (340105), anti-human CD90-PE (12-0909-42), anti-human CD105-APC (17-1057-41), anti-mouse CD105-APC (17-1051-82), anti-human CD117-PE-Cy7 (15-1178-41), anti-human Ki67-PECy7 (25-5699-41), and anti-human EpCAM-PE (12-9326-41). All events were acquired on a BD LSRII flow cytometer in the Cedars-Sinai Medical Center FACS core installed with BD FACSDiva software. Files were analyzed using FlowJo software v10.2. […]

p53 in 22Rv1 cells = test: p53 status after irradiation; format: cell-based, human
Description: In search for an alternate process mediating TRC105 radiation sensitization the inventors examined changes in cell cycle. The impact of radiation on the cell cycle is well described, as causing a G2 cell cycle arrest that undergoes cell cycle redistribution. […] As SIRT1 has previously been reported to regulate p53 stability by de-acetylating p53, the inventors investigated p53 status with TRC105 treatment. 22Rv1 cells were treated with either TRC105 or 200 μM nicotinamide, an inhibitor of SIRT1 activity, prior to irradiation (4Gy). Cells were then collected at 0, 1, and 7 days post radiation to elucidate early and late p53 response. […] While loss-of-function p53 mutations are rare in prostate cancer, 90% of pancreatic cancers have p53 mutations. We therefore used two p53 mutant pancreatic cancer cell lines: HPAF-II and MIAPACA-2 to identify if TRC105 unresponsiveness to radiation was due to p53 loss of functionality.

22Rv1 cells [4] = test: Total cellular ATP; format: cell-based, human; settings: with or without 4 Gy, 0-168 hours
Description: Cells were analyzed for mito-stress test by Seahorse-XF 168 hours following 4 Gy of radiation in the presence of IgG or TRC105. FIG. 26A) Basal respiration, non-mito respiration, proton leak, spare respiratory capacity, FIG. 26B) extracellular acidification rate (ECAR) and FIG. 26C) mitochondrial dependent ATP production were quantitated using Wave 2.3.0 analysis. Data are reported as mean+/−S.D. of a representative experiment (n=5) of 3 independent experiments. FIGS. 26A-26C, the first/left column depicts 0Gy+IgG, the second column depicts 0Gy+TRC105, the third column depicts 4Gy+IgG and the last/right column depicts 4Gy+TRC105. FIG. 26D) 22Rv1 cells treated with IgG, TRC105 or nicotinamide were irradiated (4 Gy). Total cellular ATP was measured 0, 24, 72, 120, and 168 hours post radiation. Within each group, the left column is IgG, middle column is TRC105 and the right column is nicotinamide. Data are reported as mean+/−S.D. of 3 independent experiments. (***p<0.001, ****p<0.0001).

22Rv1 cells [5] = test: Cell counts with oligomycin and irradiation; format: cell-based, human; settings: irrespective of dose of oligomycin, 72 hrs; p<0.01
Description: 22Rv1 cells were treated with indicated doses of ATPase inhibitor, oligomycin and exposed to 4Gy irradiation. Within each group, the left column is 0 Gy and the right column is 4 Gy. Cell counts were performed 72 hrs. following irradiation. (**p<0.01, ***p<0.001)

Rv1 cells [6] = test: Neuroendocrine gene panel in Rv1 treated with recombinant SFRP1; format: cell-based, human; settings: 0, 0.01, 0.1, 1 μg/ml SFRP1; p<0.002
Source text: See also FIG. 15. […] Immunohistochemical localization of CD105 and SFRP1 in benign or PCa tissues are found in blood vessels (v), epithelia (e), and stroma (s), n=4. Scale bar represents 100 μm. FIG. 12E) Epithelial proliferation of human CW22Rv1, in 3D co-cultures with mouse prostatic fibroblasts, were co-stained for EpCam and Ki67 for FACS analysis. […] See also FIG. 16. […] Error bars are mean+/−SD and **p<0.01, ****p<0.0001, compared to control unless otherwise indicated.
Total RNA was extracted using the RNeasy kit (Qiagen). 1 μg RNA was used for cDNA synthesis using iSCRIPT cDNA synthesis kit (1708891, Bio-Rad). Quantitative RT-PCR was performed with 5 replicates using the Step One Real-Time PCR system (Applied Biosystems). Gene mRNA expression was normalized to GAPDH. Primer sequences can be found in the Table 1. For RNA-sequencing, Ion Proton AmpliSeq Transcriptome RNA Sequencing was performed achieving an average of 3M reads. We mapped an average of 88% of the reads to the human genome with Torrent Suite version 4.4.2.

Rv1 cells [7] = test: Rv1 proliferation with recombinant SFRP1; format: cell-based, human; settings: same doses of SFRP1, 72 hours
Source text: Associations between copy number (CN), gene expression (GE), and methylation (Me) are denoted by lines from one node to another (p<0.01).

[8] = tested on: SIRT1 protein expression in 22Rv1; test: Western blot for SIRT1 after BMP treatment; format: cell-based, human; settings: serum-starved, 50 ng/ml BMP4 for 4 hours
Description: FIG. 20A) Western blot for SIRT1 expression measured in 22Rv1 cells following serum starvation and treatment with 50 ng/ml BMP4 for 4 hours. Phosphorylated Smad1/5 and β-actin was measured concurrently. FIG. 20B) SIRT1 mRNA expression was measured in CW22Rv1 under serum free conditions with 50 ng/ml BMP4, IgG in the context of increasing doses of TRC105 (0.05, 0.1, 0.5, 1, 5, or 10 μg/ml). SIRT1 mRNA expression was normalized to GAPDH and to serum treated control. FIG. 20C) Fold Change of SIRT1 mRNA in benign prostate and prostate cancer patients, obtained from R2-Genomics analysis is expressed (n=95). FIG. 20D) Immunohistochemical localization for SIRT1 expression in benign and prostate cancer tissues is indicated by arrows (Human Protein Atlas). The “e” and “s” indicate epithelia and stromal compartments in the tissues, respectively. FIG. 20E) SIRT1 mRNA expression was measured 72 hours following irradiation of 22Rv1 in a dose range of 0-6 Gy. FIG. 20F) SIRT1 mRNA expression was measured in a time course 0-72 hours following 4 Gy irradiation. SIRT1 mRNA expression was normalized to GAPDH and to untreated, 0 Gy. Data are reported as a mean+/−S.D. of 3 independent experiments (***p<0.001, ****p<0.0001).

Molecule: CNC(=O)c1ccc(N2C(=S)N(c3ccc(C#N)c(C(F)(F)F)c3)C(=O)C2(C)C)cc1F [enzalutamide, reference compound]
- cell turnover by phosphorylated-histone H3 and TUNEL [1]: statistically comparable to control intact mice
- tumor volume [1]: statistically comparable to control intact mice; also recorded: did not significantly decrease tumor growth
- viability (MTT) (PC3 cells): insensitive
- cell proliferation (MTT) (Rv1): significantly reduced cell proliferation; also recorded: sensitive to enzalutamide treatment
- cell proliferation (MTT) (C42B): significantly reduced cell proliferation
- SFRP1 expression in PDX ([2]; enzalutamide treatment): upregulated
- CD105 expression in PDX tissues ([2]; following 4 days of enzalutamide administration): elevated in both epithelial and CAF populations
- CD105 cell surface expression [3]: three-fold increase

Molecule: NC(=O)c1cccnc1 [nicotinamide, reference compound]
- acetylated and total-p53 (p53 in 22Rv1 cells; by 7 days post radiation): markedly increased
- anti-apoptotic protein Bc1-2 (p53 in 22Rv1 cells; prior to 4Gy irradiation): decrease in the anti-apoptotic protein Bc1-2
- p21 (p53 in 22Rv1 cells; prior to 4Gy irradiation): increase in p21
- acetylated p53 (p53 in 22Rv1 cells; treatment prior to 4Gy, nicotinamide 200 μM): increase in acetylated p53
- cellular ATP stores (22Rv1 cells [4]): depleted regardless of radiation treatment

Molecule: CC[C@H]1/C=C/C=C/C[C@@H](C)[C@H](O)[C@@](C)(O)C(=O)[C@@H](C)[C@H](O)[C@@H](C)C(=O)[C@@H](C)[C@H](O)[C@@H](C)/C=C/C(=O)O[C@@H]2[C@H](C)[C@H](CC1)O[C@]1(CC[C@H](C)[C@H](C[C@@H](C)O)O1)[C@H]2C [oligomycin]
- cell proliferation by cell counting (22Rv1 cells [5]): significantly reduced cell proliferation

B1: SFRP1: human recombinant SFRP1 (Secreted Frizzled Related Protein 1) (protein, UniProt Q8N474 32-314, looked up)
Secreted frizzled-related …: SEYDYVSFQSDIGPYQSGRFYTKPPQCVDIPADLRLCHNVGYKKMVLPNLLEHETMAEVKQQASSWVPLLNKNCHAGTQVFLCSLFAPVCLDRPIYPCRWLCEAVRDSCEPVMQFFGFYWPEMLKCDKFPEGDVCIAMTPPNATEASKPQGTTVCPPCDNELKSEAIIEHLCASEFALRMKIKEVKKENGDKKIVPKKKKPLKLGPIKKKDLKKLVLYLKNGADCPCHQLDNLSHHFLIMGRKVKSQYLLTAIHKWDKKNKEFKNFMKKMKNHECPTFQSVFK
- expression of panel of 9 PCa NED genes (Rv1 cells [6]): significant induction of a panel of 9 PCa NED genes in a dose dependent manner
- epithelial proliferation (Rv1 cells [7]): no effect

B2: BMP: bone morphogenic protein (BMP4, 50 ng/ml) used to stimulate 22Rv1 cells (protein, UniProt P12644 293-408, looked up)
Bone morphogenetic protein 4: SPKHHSQRARKKNKNCRRHSLYVDFSDVGWNDWIVAPPGYQAFYCHGDCPFPLADHLNSTNHAIVQTLVNSVNSSIPKACCVPTELSAISMLYLDEYDKVVLKNYQEMVVEGCGCR
- SIRT1 protein expression [8]: induced SIRT1 protein expression
